Results from patent US20100041597A1, “PEPTIDES TARGETED TO PROTEIN KINASE C ISOFORMS AND USES THEREOF” (priority 2005, published 2010).

Key:
PKC-β = test: In vitro competition with anti-PKC-β antibody, Protocol B, IMR-32 cells; type: binding, human; settings: PKC-β, IMR-32, Table 8
Experimental: (§1) The ability of the peptides PRE 2 and PRE 3 (see Table 3) to interfere with the binding of a PKC-α-specific polyclonal antibody (Santa Cruz Biotechnology, Inc.) to PKC-α was determined using a modified version of the protocol outlined above in which the test peptide was added directly to the cell extract prior to electrophoresis at a concentration of either 5× or 15× the concentration of the protein applied to each well of the gel for the Western blots (20 μg).
Peptides PRE 2 and PRE 3 (see Table 3) were tested for their ability to interfere with the binding of a PKC-β-specific polyclonal antibody (Santa Cruz Biotechnology, Inc.) to PKC-β using the general protocol described in Example 3.

PKC-ε = test: In vitro competition with anti-PKC-ε antibody, Protocol B, IMR-32 cells; type: binding, human
Experimental: as §1
Peptides PRE 2, PRE 3 and PRE 4 (see Table 3) were tested for their ability to interfere with the binding of isoform-specific polyclonal antibodies (Santa Cruz Biotechnology, Inc.) to PKC-ε using the general protocol described in Example 3. Two bands, representing alternate splicing variants of PKC-ε, were identified on the Western blot using this anti-PKC-ε antibody.

PKC-α [1] = biological target: T1, PKC-α (Rattus norvegicus, UniProt P05696); test: In vitro competition with anti-PKC-α antibody on blotted cell lysate, Protocol A, C6Cx43 cells; type: binding
T1 construct: Cell lysates from either IMR-32 (human neuroblastoma) cells or C6Cx43 cells; endogenous in cells; host or cells: C6Cx43 (rat glioma transfected with connexin 43)
Experimental: The ability of the peptides to interfere with the binding of a PKC-α-specific monoclonal antibody to PKC-α was determined using the following protocol.
Cell lysates from either IMR-32 (human neuroblastoma) cells or C6Cx43 cells (rat glioma transfected cells overexpressing connexin 43) were obtained using standard protocols and the proteins of the lysate were separated by SDS PAGE electrophoresis and electrotransferred onto a nitrocellulose membrane. […] A primary polyclonal antibody specific for PKC-α (Santa Cruz Biotechnology, Inc., CA) was then added (15 μg/ml) and the membrane incubated for a further 45 minutes. Finally, the primary antibody was detected with a secondary antibody conjugated to alkaline phosphatase using standard procedures. The intensity of the band corresponding to PKC-α was assessed by scanning and densitometry using the Gel-Pro software (Media Cybernetics) to obtain relative band intensities (average of 3 replicas). Control assays were conducted as described above except that blocking buffer without peptide was used.
The results are expressed as relative band intensity and as a percentage of the intensity of the corresponding band in the control assay (“Relative intensity (%)”). “% inhibition” relates to the percentage of the PKC-α band that is inaccessible to the antibody.

PKC-α [2] = biological target: PKC-α (Homo sapiens, UniProt P17252); test: Subcellular localisation of PKC-α in IMR-32 cells; type: cell-based; parameters: subcellular localisation of endogenous PKC-α in IMR-32 cells; endogenous in cells; host or cells: IMR-32; settings: 10 mg/ml, pinocytic endocytosis
Experimental: Peptides PRE 3 or PRE 4 (10 mg/ml) were introduced into human neuroblastoma cells (IMR-32) by pinocytic endocytosis. The cells were fixed and stained with rabbit PKC-A primary antibody and anti-rabbit Alexa-488 or Alexa-800 secondary antibody.
In most of the cells PKC-α can be seen to be located in the cytoplasm, around the nucleus and at the plasma membrane (where it becomes activated).

**Q.** Which “Band Intensity” value (PKC-β; 100 μg) does the source give for Ac-AKGIQEVKGGDAQNLIGISI-NH2 [PRE 3] here?
**A.** 0.0

**Q.** And the “Inhibition (%)” value (PKC-β; 100 μg)?
**A.** 100.0%

**Q.** What about the “Relative Intensity (%)” value (PKC-β; 100 μg) of the same substance?
**A.** 0.0%

**Q.** What about the “Band Intensity” value (PKC-β; 200 μg) of the same substance?
**A.** 0.0

**Q.** What about the “Inhibition (%)” value (PKC-β; 200 μg) of the same substance?
**A.** 100.0%

**Q.** And the “Relative Intensity (%)” value (PKC-β; 200 μg)?
**A.** 0.0%

**Q.** And the “Band Intensity” value (PKC-β; 300 μg)?
**A.** 0.0

**Q.** What about the “Inhibition (%)” value (PKC-β; 300 μg) of the same substance?
**A.** 100.0%

**Q.** What about the “Relative Intensity (%)” value (PKC-β; 300 μg) of the same substance?
**A.** 0.0%

**Q.** What about the “Band Intensity” value (PKC-ε; 20 μg, PKC-ε Band 1, Table 10) of the same substance?
**A.** 5.12

**Q.** And the “Inhibition (%)” value (PKC-ε; 20 μg, PKC-ε Band 1, Table 10)?
**A.** 99.0%

**Q.** What about the “Relative Intensity (%)” value (PKC-ε; 20 μg, PKC-ε Band 1, Table 10) of the same substance?
**A.** 0.12%

**Q.** What about the “Band Intensity” value (PKC-ε; 20 μg, PKC-ε Band 2, Table 10) of the same substance?
**A.** 0.0

**Q.** What about the “Inhibition (%)” value (PKC-ε; 20 μg, PKC-ε Band 2, Table 10) of the same substance?
**A.** 100.0%

**Q.** And the “Relative Intensity (%)” value (PKC-ε; 20 μg, PKC-ε Band 2, Table 10)?
**A.** 0.0%

**Q.** And the “Band Intensity” value (PKC-ε; 50 μg, PKC-ε Band 1, Table 10)?
**A.** 0.0

**Q.** And the “Inhibition (%)” value (PKC-ε; 50 μg, PKC-ε Band 1, Table 10)?
**A.** 100.0%

**Q.** And the “Relative Intensity (%)” value (PKC-ε; 50 μg, PKC-ε Band 1, Table 10)?
**A.** 0.0%

**Q.** What about the “Band Intensity” value (PKC-ε; 50 μg, PKC-ε Band 2, Table 10) of the same substance?
**A.** 0.0

**Q.** And the “Inhibition (%)” value (PKC-ε; 50 μg, PKC-ε Band 2, Table 10)?
**A.** 100.0%

**Q.** What about the “Relative Intensity (%)” value (PKC-ε; 50 μg, PKC-ε Band 2, Table 10) of the same substance?
**A.** 0.0%

**Q.** And the “Band Intensity” value (PKC-ε; 100 μg, PKC-ε Band 1, Table 10)?
**A.** 0.0

**Q.** And the “Inhibition (%)” value (PKC-ε; 100 μg, PKC-ε Band 1, Table 10)?
**A.** 100.0%

**Q.** And the “Relative Intensity (%)” value (PKC-ε; 100 μg, PKC-ε Band 1, Table 10)?
**A.** 0.0%

**Q.** What about the “Band Intensity” value (PKC-ε; 100 μg, PKC-ε Band 2, Table 10) of the same substance?
**A.** 0.0

**Q.** And the “Inhibition (%)” value (PKC-ε; 100 μg, PKC-ε Band 2, Table 10)?
**A.** 100.0%

**Q.** What about the “Relative Intensity (%)” value (PKC-ε; 100 μg, PKC-ε Band 2, Table 10) of the same substance?
**A.** 0.0%

**Q.** And the “Band Intensity” value (PKC-α [1]; 75 μg, Table 5)?
**A.** 0.909

**Q.** What about the inhibition at 0.075 mg (PKC-α [1]; 75 μg, Table 5) of the same substance?
**A.** 0%

**Q.** What about the remaining activity at 0.075 mg (PKC-α [1]; 75 μg, Table 5, read-out: Relative Intensity (%)) of the same substance?
**A.** 98%

**Q.** What about the “Band Intensity” value (PKC-α [1]; 300 μg, Table 5) of the same substance?
**A.** 0.888

**Q.** What about the inhibition at 0.3 mg (PKC-α [1]; 300 μg, Table 5) of the same substance?
**A.** 0%

**Q.** What about the remaining activity at 0.3 mg (PKC-α [1]; 300 μg, Table 5, read-out: Relative Intensity (%)) of the same substance?
**A.** 95.8%

**Q.** And the “Band Intensity” value (PKC-α [1]; 600 μg, Table 5)?
**A.** 0.889

**Q.** What about the inhibition at 0.6 mg (PKC-α [1]; 600 μg, Table 5) of the same substance?
**A.** 0%

**Q.** What about the remaining activity at 0.6 mg (PKC-α [1]; 600 μg, Table 5, read-out: Relative Intensity (%)) of the same substance?
**A.** 95.9%

**Q.** What about the “Band Intensity” value (PKC-α [1]; 3.75 mg, Table 5) of the same substance?
**A.** 0.603

**Q.** What about the remaining activity at 3.75 mg (PKC-α [1]; 3.75 mg, Table 5, read-out: Relative Intensity (%)) of the same substance?
**A.** 105%

**Q.** And the “Band Intensity” value (PKC-α [1]; 5.25 mg, Table 5)?
**A.** 0.599

**Q.** What about the remaining activity at 5.25 mg (PKC-α [1]; 5.25 mg, Table 5, read-out: Relative Intensity (%)) of the same substance?
**A.** 105%

**Q.** And the “Band Intensity” value (PKC-α [1]; 7.5 mg, Table 5)?
**A.** 0.589

**Q.** And the inhibition at 7.5 mg (PKC-α [1]; 7.5 mg, Table 5)?
**A.** 0%

**Q.** What about the remaining activity at 7.5 mg (PKC-α [1]; 7.5 mg, Table 5, read-out: Relative Intensity (%)) of the same substance?
**A.** 103%

**Q.** And the “effect on subcellular localisation of PKC-α” value (PKC-α [2])?
**A.** does not alter the subcellular localisation of PKC-α

**Q.** How did the “effect on antibody binding to PKC-ε” value (PKC-ε) turn out when “Ac-KDAQNLIGISI-NH2 [PRE 4, Ac-KDAQNLIGISI-NH2]” was run?
**A.** some cross-reactivity with PKC-ε

**Q.** And the “Band Intensity” value (PKC-ε; 20 μg, PKC-ε Band 1, Table 10)?
**A.** 184.38

**Q.** What about the “Inhibition (%)” value (PKC-ε; 20 μg, PKC-ε Band 1, Table 10) of the same substance?
**A.** 42.9%

**Q.** What about the “Relative Intensity (%)” value (PKC-ε; 20 μg, PKC-ε Band 1, Table 10) of the same substance?
**A.** 57.1%

**Q.** What about the “Band Intensity” value (PKC-ε; 20 μg, PKC-ε Band 2, Table 10) of the same substance?
**A.** 152.66

**Q.** What about the “Inhibition (%)” value (PKC-ε; 20 μg, PKC-ε Band 2, Table 10) of the same substance?
**A.** 46.6%

**Q.** And the “Relative Intensity (%)” value (PKC-ε; 20 μg, PKC-ε Band 2, Table 10)?
**A.** 53.33%

**Q.** And the “Band Intensity” value (PKC-ε; 50 μg, PKC-ε Band 1, Table 10)?
**A.** 0.0

**Q.** What about the “Inhibition (%)” value (PKC-ε; 50 μg, PKC-ε Band 1, Table 10) of the same substance?
**A.** 100.0%

**Q.** What about the “Relative Intensity (%)” value (PKC-ε; 50 μg, PKC-ε Band 1, Table 10) of the same substance?
**A.** 0.0%

**Q.** What about the “Band Intensity” value (PKC-ε; 50 μg, PKC-ε Band 2, Table 10) of the same substance?
**A.** 0.0

**Q.** And the “Inhibition (%)” value (PKC-ε; 50 μg, PKC-ε Band 2, Table 10)?
**A.** 100.0%

**Q.** What about the “Relative Intensity (%)” value (PKC-ε; 50 μg, PKC-ε Band 2, Table 10) of the same substance?
**A.** 0.0%

**Q.** And the “Band Intensity” value (PKC-ε; 100 μg, PKC-ε Band 1, Table 10)?
**A.** 0.0

**Q.** What about the “Inhibition (%)” value (PKC-ε; 100 μg, PKC-ε Band 1, Table 10) of the same substance?
**A.** 100.0%

**Q.** What about the “Relative Intensity (%)” value (PKC-ε; 100 μg, PKC-ε Band 1, Table 10) of the same substance?
**A.** 0.0%

**Q.** And the “Band Intensity” value (PKC-ε; 100 μg, PKC-ε Band 2, Table 10)?
**A.** 0.0

**Q.** What about the “Inhibition (%)” value (PKC-ε; 100 μg, PKC-ε Band 2, Table 10) of the same substance?
**A.** 100.0%

**Q.** What about the “Relative Intensity (%)” value (PKC-ε; 100 μg, PKC-ε Band 2, Table 10) of the same substance?
**A.** 0.0%

**Q.** What about the “effect on subcellular localisation of PKC-α” value (PKC-α [2]) of the same substance?
**A.** prevented translocation of PKC-α to the membrane
